Measurements: patent publication US20210045385A1, “PYRIDAZINONE-SUBSTITUTED KETOXIMES AS HERBICIDES” (FMC Corporation, priority 2018, published 2021)

Experiments:
Assay type in all cases: in vivo
rice (Oryza sativa) = test: Test D flooded paddy test, visual plant response rating; details: 250 g ai/ha, scale 0 to 100 (0 no effect, 100 complete control), 13 to 15 d
Procedure, shortened: (§1)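 2-leaf plants, flooded 3 cm, cpd into paddy water; greenhouse 13–15 d; visual rating vs controls, 0 = no effect, 100 = complete control; dash = no result.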

[1] = tested on: sedge umbrella (small-flower umbrella sedge, Cyperus difformis); test: as above; details: 250 g ai/ha, scale 0 to 100 (0 no effect, 100 complete control), 13 to 15 d
Procedure, shortened: as §1

[2] = tested on: duck salad (Heteranthera limosa); test: as above; details: 250 g ai/ha, scale 0 to 100 (0 no effect, 100 complete control), 13 to 15 d
Procedure, shortened: as §1

[3] = tested on: barnyardgrass (Echinochloa crus-galli); test: as above; details: 250 g ai/ha, scale 0 to 100 (0 no effect, 100 complete control), 13 to 15 d
Procedure, shortened: as §1

[4] = tested on: foxtail, giant (giant foxtail, Setaria faberi); test: Test C preemergence, visual plant response rating; details: Test C, 0 is no effect, 100 is complete control
Procedure, shortened: (§2)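 Compounds in a non-phytotoxic solvent with surfactant were applied as a directed soil spray preemergence or to 2–10 cm, one- to two-leaf plants postemergence, in loam–sand soil. After about 10 d in a greenhouse, injury was visually rated against untreated controls on a 0–100 scale (100 = complete control).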

[5] = tested on: pigweed (Amaranthus retroflexus); test: Test C preemergence, visual plant response rating; details: Test C, 0 is no effect, 100 is complete control
Procedure, shortened: as §2

[6] = tested on: Italian ryegrass (Lolium mutiflorum); test: Test C preemergence, visual plant response rating; details: Test C, 0 is no effect, 100 is complete control
Procedure, shortened: as §2

[7] = tested on: ragweed (common ragweed, Ambrosia artemisiifolia); test: Test C preemergence, visual plant response rating; details: Test C, 0 is no effect, 100 is complete control
Procedure, shortened: as §2

[8] = tested on: barnyardgrass (Echinochloa crus-galli); test: Test C preemergence, visual plant response rating; details: Test C, 0 is no effect, 100 is complete control
Procedure, shortened: as §2

kochia (Bassia scoparia) [9] = test: Test C preemergence, visual plant response rating; details: Test C, 0 is no effect, 100 is complete control
Procedure, shortened: as §2

[10] = tested on: wheat (Triticum aestivum); test: Test C postemergence, visual plant response rating
Procedure, shortened: as §2

[11] = tested on: galium (catchweed bedstraw, Galium aparine); test: Test C postemergence, visual plant response rating
Procedure, shortened: as §2

[12] = tested on: blackgrass (Alopecurus myosuroides); test: Test C postemergence, visual plant response rating
Procedure, shortened: as §2

[13] = tested on: foxtail, giant (giant foxtail, Setaria faberi); test: Test C postemergence, visual plant response rating
Procedure, shortened: as §2

[14] = tested on: pigweed (Amaranthus retroflexus); test: Test C postemergence, visual plant response rating
Procedure, shortened: as §2

[15] = tested on: Italian ryegrass (Lolium mutiflorum); test: Test C postemergence, visual plant response rating
Procedure, shortened: as §2

[16] = tested on: ragweed (common ragweed, Ambrosia artemisiifolia); test: Test C postemergence, visual plant response rating
Procedure, shortened: as §2

[17] = tested on: barnyardgrass (Echinochloa crus-galli); test: Test C postemergence, visual plant response rating
Procedure, shortened: as §2

corn (Zea mays) = test: Test C postemergence, visual plant response rating
Procedure, shortened: as §2

kochia (Bassia scoparia) [18] = test: Test C postemergence, visual plant response rating
Procedure, shortened: as §2

[19] = Test C, postemergence, 125 g ai/ha

SMILES	Plant response rating, Rice (Flood) (rice (Oryza sativa))	Plant response rating, Sedge, Umbrella (Flood) [1]	Plant response rating, Ducksalad (Flood) [2]	Plant response rating, Barnyardgrass (Flood) [3]	Foxtail, Giant plant response rating (0 to 100 scale) ([4]; 31 g ai/ha)	Foxtail, Giant plant response rating (0 to 100 scale) ([4]; 125 g ai/ha)	Pigweed plant response rating (0 to 100 scale) ([5]; 31 g ai/ha)	Pigweed plant response rating (0 to 100 scale) ([5]; 125 g ai/ha)	Ryegrass, Italian plant response rating (0 to 100 scale) ([6]; 31 g ai/ha)	Ryegrass, Italian plant response rating (0 to 100 scale) ([6]; 125 g ai/ha)	Ragweed plant response rating (0 to 100 scale) ([7]; 31 g ai/ha)	Ragweed plant response rating (0 to 100 scale) ([7]; 125 g ai/ha)	Barnyardgrass plant response rating (0 to 100 scale) ([8]; 31 g ai/ha)	Barnyardgrass plant response rating (0 to 100 scale) ([8]; 125 g ai/ha)	Kochia plant response rating (0 to 100 scale) (kochia (Bassia scoparia) [9]; 31 g ai/ha)	Kochia plant response rating (0 to 100 scale) (kochia (Bassia scoparia) [9]; 125 g ai/ha)	Wheat plant response rating (0 to 100 scale) ([10]; Postemergence, 31 g ai/ha)	Wheat plant response rating (0 to 100 scale) [10, 19]	Galium plant response rating (0 to 100 scale) ([11]; Postemergence, 31 g ai/ha)	Galium plant response rating (0 to 100 scale) [11, 19]	also measured
CO/N=C(\c1cc(Cl)c(F)c(Cl)c1)c1c(O)c(C)nn(C)c1=O [Compound 290]	0	0	0	0	0	20	10	30	0	40	20	90	0	0	0	0	0	0	70	100	Blackgrass plant response rating (0 to 100 scale) ([12]; Postemergence, 31 g ai/ha): 0; Blackgrass plant response rating (0 to 100 scale) [12, 19]: 0; Foxtail, Giant plant response rating (0 to 100 scale) ([13]; Postemergence, 31 g ai/ha): 0; Foxtail, Giant plant response rating (0 to 100 scale) [13, 19]: 0; Pigweed plant response rating (0 to 100 scale) ([14]; Postemergence, 31 g ai/ha): 0; Pigweed plant response rating (0 to 100 scale) [14, 19]: 0; Ryegrass, Italian plant response rating (0 to 100 scale) ([15]; Postemergence, 31 g ai/ha): 0; Ryegrass, Italian plant response rating (0 to 100 scale) [15, 19]: 60; Ragweed plant response rating (0 to 100 scale) ([16]; Postemergence, 31 g ai/ha): 20; Ragweed plant response rating (0 to 100 scale) [16, 19]: 50; Barnyardgrass plant response rating (0 to 100 scale) ([17]; Postemergence, 31 g ai/ha): 0; Barnyardgrass plant response rating (0 to 100 scale) [17, 19]: 20; Corn plant response rating (0 to 100 scale) (corn (Zea mays); Postemergence, 31 g ai/ha): 0; Corn plant response rating (0 to 100 scale) (corn (Zea mays); [19]): 0; Kochia plant response rating (0 to 100 scale) (kochia (Bassia scoparia) [18]; Postemergence, 31 g ai/ha): 0; Kochia plant response rating (0 to 100 scale) (kochia (Bassia scoparia) [18]; [19]): 20
CO/N=C(\c1cccc(Br)c1)c1c(O)c(C)nn(C)c1=O [Compound 239]	0	0	0	0	0	10	0	10	10	50	10	50	0	0	0	10	0	0	70	90	Blackgrass plant response rating (0 to 100 scale) ([12]; Postemergence, 31 g ai/ha): 0; Blackgrass plant response rating (0 to 100 scale) [12, 19]: 0; Foxtail, Giant plant response rating (0 to 100 scale) ([13]; Postemergence, 31 g ai/ha): 0; Foxtail, Giant plant response rating (0 to 100 scale) [13, 19]: 20; Pigweed plant response rating (0 to 100 scale) ([14]; Postemergence, 31 g ai/ha): 20; Pigweed plant response rating (0 to 100 scale) [14, 19]: 60; Ryegrass, Italian plant response rating (0 to 100 scale) ([15]; Postemergence, 31 g ai/ha): 50; Ryegrass, Italian plant response rating (0 to 100 scale) [15, 19]: 60; Ragweed plant response rating (0 to 100 scale) ([16]; Postemergence, 31 g ai/ha): 50; Ragweed plant response rating (0 to 100 scale) [16, 19]: 70; Barnyardgrass plant response rating (0 to 100 scale) ([17]; Postemergence, 31 g ai/ha): 10; Barnyardgrass plant response rating (0 to 100 scale) [17, 19]: 30; Corn plant response rating (0 to 100 scale) (corn (Zea mays); Postemergence, 31 g ai/ha): 0; Corn plant response rating (0 to 100 scale) (corn (Zea mays); [19]): 0; Kochia plant response rating (0 to 100 scale) (kochia (Bassia scoparia) [18]; Postemergence, 31 g ai/ha): 40; Kochia plant response rating (0 to 100 scale) (kochia (Bassia scoparia) [18]; [19]): 60
C#CCON=C(c1cccc(OC(F)F)c1)c1c(O)c(C)nn(C)c1=O [Compound 201]	0	0	0	0	10	30	0	0	10	80	0	20	0	10	0	0	0	40	50	80	Blackgrass plant response rating (0 to 100 scale) ([12]; Postemergence, 31 g ai/ha): 10; Blackgrass plant response rating (0 to 100 scale) [12, 19]: 50; Foxtail, Giant plant response rating (0 to 100 scale) ([13]; Postemergence, 31 g ai/ha): 20; Foxtail, Giant plant response rating (0 to 100 scale) [13, 19]: 40; Pigweed plant response rating (0 to 100 scale) ([14]; Postemergence, 31 g ai/ha): 20; Pigweed plant response rating (0 to 100 scale) [14, 19]: 70; Ryegrass, Italian plant response rating (0 to 100 scale) ([15]; Postemergence, 31 g ai/ha): 30; Ryegrass, Italian plant response rating (0 to 100 scale) [15, 19]: 60; Ragweed plant response rating (0 to 100 scale) ([16]; Postemergence, 31 g ai/ha): 10; Ragweed plant response rating (0 to 100 scale) [16, 19]: 30; Barnyardgrass plant response rating (0 to 100 scale) ([17]; Postemergence, 31 g ai/ha): 10; Barnyardgrass plant response rating (0 to 100 scale) [17, 19]: 40; Corn plant response rating (0 to 100 scale) (corn (Zea mays); Postemergence, 31 g ai/ha): 0; Corn plant response rating (0 to 100 scale) (corn (Zea mays); [19]): 0; Kochia plant response rating (0 to 100 scale) (kochia (Bassia scoparia) [18]; Postemergence, 31 g ai/ha): 40; Kochia plant response rating (0 to 100 scale) (kochia (Bassia scoparia) [18]; [19]): 70
CO/N=C(\c1c(O)cnn(C)c1=O)c1ccc(F)c2ccccc12 [Compound 303]	0	0	0	0	0	10	10	30	0	20	0	20	0	0	0	10	0	0	30	70	Blackgrass plant response rating (0 to 100 scale) ([12]; Postemergence, 31 g ai/ha): 0; Blackgrass plant response rating (0 to 100 scale) [12, 19]: 0; Foxtail, Giant plant response rating (0 to 100 scale) ([13]; Postemergence, 31 g ai/ha): 0; Foxtail, Giant plant response rating (0 to 100 scale) [13, 19]: 20; Pigweed plant response rating (0 to 100 scale) ([14]; Postemergence, 31 g ai/ha): 40; Pigweed plant response rating (0 to 100 scale) [14, 19]: 60; Ryegrass, Italian plant response rating (0 to 100 scale) ([15]; Postemergence, 31 g ai/ha): 20; Ryegrass, Italian plant response rating (0 to 100 scale) [15, 19]: 40; Ragweed plant response rating (0 to 100 scale) ([16]; Postemergence, 31 g ai/ha): 10; Ragweed plant response rating (0 to 100 scale) [16, 19]: 20; Barnyardgrass plant response rating (0 to 100 scale) ([17]; Postemergence, 31 g ai/ha): 0; Barnyardgrass plant response rating (0 to 100 scale) [17, 19]: 10; Corn plant response rating (0 to 100 scale) (corn (Zea mays); Postemergence, 31 g ai/ha): 0; Corn plant response rating (0 to 100 scale) (corn (Zea mays); [19]): 0; Kochia plant response rating (0 to 100 scale) (kochia (Bassia scoparia) [18]; Postemergence, 31 g ai/ha): 40; Kochia plant response rating (0 to 100 scale) (kochia (Bassia scoparia) [18]; [19]): 50
